Assay results as given in publication PMC6863074 (Journal of medicinal chemistry, 2015).
Entries after “also recorded” stand apart in the source; their conditions may differ.

System: S. aureus ATCC 29213
Test: MIC determination, S. aureus ATCC 29213
Conditions: for antibacterial activity (in words): S. aureus ATCC 29213 MIC screening, active = MIC ≤ 8 μg/mL

SMILES	antibacterial activity (in words)	MIC (Staphylococcus aureus, ATCC29213|MSSA)
CCCCNc1c[nH]nc1-c1nc(-c2ccc(Oc3ccc(C(F)(F)F)cc3)cc2)no1 [104b]	did not extend	
NC(=O)c1ccc(-c2nc(-c3ccc(Oc4ccc(F)cc4)cc3)no2)cc1 [88c]	failed to show activity; also recorded: attenuate or abrogate activity	
Oc1cc(-c2nc(-c3ccc(Oc4ccccc4)cc3)no2)ccc1I [96a]	failed to show activity	
Nc1cc(-c2nc(-c3ccc(Oc4ccc(F)cc4)cc3)no2)ccc1O [92c]	failed to show activity	
O=C(Nc1c[nH]nc1-c1nc(-c2ccc(Oc3ccc(C(F)(F)F)cc3)cc2)no1)c1ccccn1 [109b]	did not extend	
FC(F)(F)c1ccc(Oc2ccc(-c3noc(-c4n[nH]c5ccccc45)n3)cc2)cc1 [123b]	No activity	
Nc1c[nH]nc1-c1nc(-c2ccc(Oc3ccc(C(F)(F)F)cc3)cc2)no1 [64b, 3-(3-(4-(4-(Trifluoromethyl)phenoxy)phenyl)-1,2,4-oxadiazol-5-yl)-1H-pyrazol-4-amine]	tolerated	
Oc1ccccc1-c1nc(-c2ccc(Oc3ccccc3)cc2)no1 [97a]	failed to show activity	
Nc1cc(-c2nc(-c3ccc(Oc4ccc(C(F)(F)F)cc4)cc3)no2)cnc1O [121b]	No activity	
NS(=O)(=O)c1ccc(-c2nc(-c3ccc(Oc4ccc(F)cc4)cc3)no2)cc1 [87c]	attenuate or abrogate activity	
FC(F)(F)c1ccc(Oc2ccc(-c3noc(-c4cn[nH]n4)n3)cc2)cc1 [117b]	generally abolish antibacterial activity	
CC(C)CNc1c[nH]nc1-c1nc(-c2ccc(Oc3ccc(C(F)(F)F)cc3)cc2)no1 [105b]	did not extend	
Brc1c[nH]nc1-c1nc(-c2ccc(Oc3ccccc3)cc2)no1 [61a]		≤ 1 µg/mL
O=[N+]([O-])c1ccc(-c2nc(-c3ccc(Oc4ccccc4)cc3)no2)cc1 [82a]	loss of activity	
O=[N+]([O-])c1c[nH]c(-c2nc(-c3ccc(Oc4ccc(C(F)(F)F)cc4)cc3)no2)c1 [78b]	retained good activity	
Fc1ccc(-c2nc(-c3ccc(Oc4ccccc4)cc3)no2)cc1 [80a]	loss of activity	
O=C(Nc1c[nH]nc1-c1nc(-c2ccc(Oc3ccc(C(F)(F)F)cc3)cc2)no1)c1ccccc1 [108b]	did not extend	
Nc1ccc(-c2nc(-c3ccc(Oc4ccc(C(F)(F)F)cc4)cc3)no2)cc1 [58b]	low MIC values	
N#Cc1c[nH]nc1-c1nc(-c2ccc(Oc3ccc(C(F)(F)F)cc3)cc2)no1 [67b]	maintained good activity	
OCC#Cc1c[nH]nc1-c1nc(-c2ccc(Oc3ccc(C(F)(F)F)cc3)cc2)no1 [68b]	maintained good activity	
FC(F)(F)c1ccc(Oc2ccc(-c3noc(-c4c[nH]cn4)n3)cc2)cc1 [76b, 5-(1H-Imidazol-4-yl)-3-(4-(4-(trifluoromethyl)phenoxy)phenyl)-1,2,4-oxadiazole]	retained good activity	
Fc1ccc(Oc2ccc(-c3noc(-c4cc[nH]c4)n3)cc2)cc1 [127c]	generally abolish antibacterial activity	
Nc1cncc(-c2nc(-c3ccc(Oc4ccc(F)cc4)cc3)no2)c1 [122c]	No activity	
Nc1c(F)cc(-c2nc(-c3ccc(Oc4ccccc4)cc3)no2)cc1F [73a]	without significant loss of activity	
Nc1ccc(-c2nc(-c3ccc(Oc4ccc(C(F)(F)F)cc4)cc3)no2)cc1F [72b]	without significant loss of activity	
